Results on four compounds are retold here after patent US7973072B2, “Substituted benzo-condensed cyclohexanone derivatives and the use thereof for medicament production” (Gruenenthal GmbH, priority 2005, dated 2011).

Each structure is given as a SMILES string. Where only a bound is given, the exact number is not on record here.

Data set [1] addresses T1, human vanilloid receptor 1 (VR1) (Homo sapiens, UniProt Q8NER1).
T1 construct: expressed in transfected cells; host or cells: CHO K1 cells (ECACC), stably transfected
Put plainly: FLIPR Ca2+ functional study on human vanilloid receptor 1 (CHO K1 cells transfected with human VR1). The format is cell-based. The settings on record: for inhibition at 10 µM: CHO-K1, test compound 10 μM, suppression of Ca2+ current after 100 nM capsaicin, relative to maximum inhibition with 10 μM capsaicin (CP), read-out: VR1 (human) (% inhibition compared to 10 μM CP); for EC50: agonistic action. Here is the method: Chinese hamster ovary cells (CHO K1 cells, European Collection of Cell Cultures (ECACC), England) are transfected stably with the human vanilloid receptor 1 (VR1) gene or the vanilloid receptor 1 (VR1) gene of the rat. For functional studies, these cells are plated out onto poly-D-lysine-coated black 96-well plates with a clear bottom (BD Biosciences, Heidelberg, Germany) in a density of 25 000 cells/well. The cells are incubated overnight at 37° C. and 5% CO2 in culture medium (Ham's Nutrient Mixture F12, Gibco Invitrogen GmbH, Karlsruhe, Germany) with 10% by volume of FBS (fetal bovine serum, Gibco Invitrogen GmbH, Karlsruhe, Germany), and 18 μg/ml of L-proline (Gibco Invitrogen GmbH, Karlsruhe, Germany). The next day, the cells are laden with 2 μM Fluo-4 and 0.01% by volume of Pluronic F127 (Molecular Probes Europe BV, Leiden, The Netherlands) in HBSS buffer (Hank's buffered saline solution, Gibco Invitrogen GmbH, Karlsruhe, Germany) at 37° C. for 30 min. Subsequently, the plates are washed 3 times with HBSS buffer and, after a further incubation of 15 minutes at room temperature, used for Ca^2+ measurement in the FLIPR assay. The Ca^2+-dependent fluorescence is measured before and after addition of substances λex=488 nm, λem=540 nm). The quantification is effected by measuring the highest fluorescence intensity (FC, fluorescence counts) over the time.
The FLIPR protocol consists of 2 substance additions. First, the compounds to be tested (10 μM) are pipetted onto the cells obtained according to Ia or Ib and the Ca^2+ current is compared with the control (capsaicin 10 μM). This gives rise to the result in % activation based on the Ca^2+ signal after addition of 10 μM capsaicin (CP). After incubation for 5 minutes, 100 nM capsaicin is applied and the current of Ca^2+ is likewise determined.
Desensitizing agonists and antagonists lead to a suppression in the Ca^2+ current. % inhibition is calculated compared to the maximum achievable inhibition with 10 μM capsaicin.
Triple determinations (n=3) are performed and they are repeated in at least 3 independent experiments (N=4).

The target in data set [2] is T2, vanilloid receptor 1 (VR1/TRPV1) of the rat (Rattus norvegicus, UniProt O35433).
T2 construct: host or cells: rat dorsal root ganglia primary cells (Ia) or CHO K1 cells stably transfected with the rat VR1 gene (Ib)
Nature of the data set: FLIPR Ca2+ functional study on rat vanilloid receptor 1 (rat dorsal root ganglia cells or CHO K1 cells transfected with rat VR1). The format is cell-based. The settings on record: for activation at 10 µM / inhibition at 10 µM: CHO-K1, test compound 10 μM; for activation at 10 µM: % activation based on Ca2+ signal after 10 μM capsaicin (CP), read-out: VR1 (rat) (% stimulation compared to 10 μM CP); for inhibition at 10 µM: suppression of Ca2+ current after 100 nM capsaicin, relative to maximum inhibition with 10 μM capsaicin (CP), read-out: VR1 (rat) (% inhibition compared to 10 μM CP); for EC50: agonistic action. On the procedure: The agonistic or antagonistic action of the substances to be studied on the vanilloid receptor 1 (VR1/TRPV1) of the rat species can be determined with the following assay. In this assay, the Ca^2+ current through the receptor channel is quantified with the aid of a Ca^2+-sensitive dye (Fluo-4 type, Molecular Probes Europe BV, Leiden the Netherlands) in a fluorescent imaging plate reader (FLIPR, Molecular Devices, Sunnyvale, USA).
Complete medium: 50 ml HAMS F12 Nutrient Mixture (Gibco Invitrogen GmbH, Karlsruhe, Germany) with
10% by volume of FCS (fetal calf serum, Gibco Invitrogen GmbH, Karlsruhe, Germany, heat-inactivated);
2 mM L-glutamine (Sigma, Munich, Germany);
1% by weight of AA solution (antibiotic/antimycotic solution, PAA, Pasching, Austria) and 25 ng/ml of NGF medium (2.5 S, Gibco Invitrogen GmbH, Karlsruhe, Germany)
Cell culture plate: poly-D-lysine-coated, black 96-hole plates with a clear bottom (96 well black/clear plate, BD Biosciences, Heidelberg, Germany) are additionally coated with laminin (Gibco Invitrogen GmbH, Karlsruhe, Germany) by diluting laminin to a concentration of 100 μg/ml with PBS (Ca—Mg-free PBS, Gibco Invitrogen GmbH, Karlsruhe, Germany). Aliquots having a concentration of 100 μg/ml of laminin are withdrawn and stored at −20° C. The aliquots are diluted with PBS in a ratio of 1:10 to 10 μg/ml of laminin and in each case 50 μl of the solution are pipetted into a well of the cell culture plate. The cell culture plates are incubated at 37° C. for at least two hours, the supernatant solution is removed by suction and the wells are each washed twice with PBS. The coated cell culture plates are stored with supernatant PBS which is not removed until directly before the application of the cells.
The spinal column is removed from beheaded rats and placed directly into cold HBSS buffer (Hank's buffered saline solution, Gibco Invitrogen GmbH, Karlsruhe, Germany), i.e. placed in an ice bath, which has been admixed with 1% by volume of an AA solution (antibiotic/antimycotic solution, PAA, Pasching, Austria). The spinal column is severed longitudinally and removed from the spinal canal together with fasciae. Subsequently, the dorsal root ganglia (DRGs) are removed and in turn stored in cold HBSS buffer admixed with 1% by volume of an […]. The DRGs freed completely of blood residues and spinal nerves are in each case transferred to 500 μl of cold type 2 collagenase (PAA, Pasching, Austria) and incubated at 37° C. for 35 minutes. After addition of 2.5% by volume of trypsin (PAA, Pasching, Austria), incubation is continued at 37° C. for a further 10 minutes. After complete incubation, the enzyme solution is cautiously pipetted off and the remaining DRGs are each admixed with 500 μl of complete medium.
The DRGs are each suspended repeatedly, drawn through cannulas No. 1, No. 12 and No. 16 by means of a syringe and transferred to 50 ml Falcon tubes which are made up to 15 ml with complete medium. The contents of each Falcon tube are in each case filtered through a 70 μm Falcon filter insert and centrifuged at 1200 revolutions and room temperature for 10 minutes. The resulting pellet is in each case taken up in 250 μl of complete medium and the cell count is determined.
The number of cells in the suspension is adjusted to 3 times 10^5 per ml and in each case 150 μl of this suspension are added to one well of the cell culture plates coated as described above. In the incubator, the plates are left to stand at 37° C., 5% by volume of CO2 and 95% relative air humidity for two to three days.
Subsequently, the cells are laden with 2 μM Fluo-4 and 0.01% by volume of Pluronic F127 (Molecular Probes Europe BV, Leiden, the Netherlands) in HBSS buffer (Hank's buffered saline solution, Gibco Invitrogen GmbH, Karlsruhe, Germany) at 37° C. for 30 min, washed 3× with HBSS buffer and, after a further incubation of 15 minutes, used in the FLIPR assay at room temperature for Ca^2+ measurement. […]

T1 sequence (Q8NER1 whole entry): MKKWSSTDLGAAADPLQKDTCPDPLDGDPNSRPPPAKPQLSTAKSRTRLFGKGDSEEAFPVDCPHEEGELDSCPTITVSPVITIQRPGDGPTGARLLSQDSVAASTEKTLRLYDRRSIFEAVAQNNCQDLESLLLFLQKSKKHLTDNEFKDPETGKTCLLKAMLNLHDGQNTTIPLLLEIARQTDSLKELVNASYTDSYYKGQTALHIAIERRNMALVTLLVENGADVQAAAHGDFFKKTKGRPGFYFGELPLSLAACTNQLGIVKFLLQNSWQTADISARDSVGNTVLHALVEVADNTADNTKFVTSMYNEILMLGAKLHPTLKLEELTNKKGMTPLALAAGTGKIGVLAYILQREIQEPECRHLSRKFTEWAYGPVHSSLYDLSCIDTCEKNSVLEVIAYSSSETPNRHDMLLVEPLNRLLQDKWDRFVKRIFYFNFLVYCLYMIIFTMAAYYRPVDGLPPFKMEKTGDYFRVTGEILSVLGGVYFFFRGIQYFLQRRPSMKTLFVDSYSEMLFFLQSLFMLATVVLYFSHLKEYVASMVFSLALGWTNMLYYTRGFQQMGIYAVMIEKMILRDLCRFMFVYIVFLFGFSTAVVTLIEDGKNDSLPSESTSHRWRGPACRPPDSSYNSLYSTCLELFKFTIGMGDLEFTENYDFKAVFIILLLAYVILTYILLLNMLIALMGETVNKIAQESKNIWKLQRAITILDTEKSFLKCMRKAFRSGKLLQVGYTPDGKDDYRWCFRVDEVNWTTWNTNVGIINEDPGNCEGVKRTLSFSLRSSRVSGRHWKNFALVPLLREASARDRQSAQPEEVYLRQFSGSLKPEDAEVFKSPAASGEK
T2 sequence (O35433 whole entry): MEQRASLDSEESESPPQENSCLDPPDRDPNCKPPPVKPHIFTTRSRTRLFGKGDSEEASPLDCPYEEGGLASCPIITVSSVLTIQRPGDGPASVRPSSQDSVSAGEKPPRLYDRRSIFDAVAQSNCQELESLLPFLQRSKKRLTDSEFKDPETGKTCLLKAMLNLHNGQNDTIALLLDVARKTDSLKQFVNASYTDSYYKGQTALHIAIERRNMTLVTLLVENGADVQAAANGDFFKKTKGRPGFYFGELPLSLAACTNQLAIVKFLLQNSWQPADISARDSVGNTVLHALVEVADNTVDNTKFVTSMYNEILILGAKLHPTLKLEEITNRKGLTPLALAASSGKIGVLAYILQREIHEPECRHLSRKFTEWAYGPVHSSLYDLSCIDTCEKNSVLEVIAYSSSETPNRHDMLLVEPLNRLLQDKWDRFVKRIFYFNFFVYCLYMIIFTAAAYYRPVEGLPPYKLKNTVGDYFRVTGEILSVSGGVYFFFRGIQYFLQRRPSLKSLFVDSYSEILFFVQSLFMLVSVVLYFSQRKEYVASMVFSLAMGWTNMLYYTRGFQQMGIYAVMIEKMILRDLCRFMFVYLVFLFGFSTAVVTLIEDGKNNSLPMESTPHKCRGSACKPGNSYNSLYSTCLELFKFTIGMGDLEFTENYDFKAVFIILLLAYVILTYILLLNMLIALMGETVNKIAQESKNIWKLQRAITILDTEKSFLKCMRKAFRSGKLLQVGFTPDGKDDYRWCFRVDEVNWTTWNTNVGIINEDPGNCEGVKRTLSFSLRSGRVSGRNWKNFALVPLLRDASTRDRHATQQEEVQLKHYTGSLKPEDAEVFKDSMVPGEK

With `O=C(Nc1ccccc1)OCC1(COC(=O)Nc2ccccc2)CS(=O)(=O)c2ccccc2C1=O` [Example Compound 43, 3,3-bis(phenylcarbamoyloxymethyl)-1,1-dioxo-1λ^6-thiochroman-4-one], the melting point is 72 to 78 °C. Further, in data set [1], the inhibition at 10 µM stood at 9.79%. In data set [1] (FLIPR), this compound gave an EC50 of 9 µM. Besides, in data set [2], the activation at 10 µM was 48.5% and the inhibition at 10 µM turned out to be 83.9%. The half-maximal effective concentration (EC50) in data set [2] (FLIPR) is 25.4 µM.
Turning to `Cc1ccc2c(c1)[S+]([O-])CC(COC(=O)Nc1ccccc1)(COC(=O)Nc1ccccc1)C2=O` (stereo not drawn) [Example Compound 47, 3,3-bis(phenylcarbamoyloxymethyl)-7-methyl-1-oxo-1λ^4-thiochroman-4-one], the melting point was 65 to 73 °C. Also, the inhibition at 10 µM in data set [1] was 59.2%. In addition, in data set [1] (FLIPR), the EC50 came out at 13.4 µM. In addition, in data set [2], the activation at 10 µM is 11.8% and the inhibition at 10 µM was found to be 61.5%. Also, it took 20.3 µM to reach a half-maximal effect in data set [2] (FLIPR) (EC50).
With `Cc1ccc2c(c1)S(=O)(=O)CC(COC(=O)Nc1ccccc1)(COC(=O)Nc1ccccc1)C2=O` [Example Compound 48, 3,3-bis(phenylcarbamoyloxymethyl)-7-methyl-1,1-dioxo-1λ^6-thiochroman-4-one], the melting point is 85 to 95 °C. The inhibition at 10 µM in data set [1] is 81.1%. The compound also displayed an EC50 in data set [1] (FLIPR) of 1.85 µM. In data set [2], the activation at 10 µM was 64.9% and the inhibition at 10 µM turned out to be 88.8%. The compound also had an EC50 in data set [2] (FLIPR) of 3.4 µM.
As for `CC(C)(C)c1ccc(NC(=O)OCC2(COC(=O)Nc3ccc(C(C)(C)C)cc3)CSc3ccccc3C2=O)cc1` [Example Compound 50, 3,3-bis(4-tert-butylphenylcarbamoyloxymethyl)thiochroman-4-one], the melting point was in the range of 78 to 85 °C. The inhibition at 10 µM in data set [1] was 0%. In data set [1] (FLIPR, antagonistic action), the concentration for half-maximal inhibition (IC50) was more than 20 µM. Moreover, in data set [2], the activation at 10 µM amounted to 0% and the inhibition at 10 µM was 99.9%. The compound also yielded an IC50 in data set [2] (FLIPR, antagonistic action) of 5.7 µM.
